For one assay, the target named is GST-Bcl-XL (Homo sapiens, UniProt Q07817). The assay is described as follows: Fluorescence polarization assay, GST-Bcl-XL / fluorescein-labeled Bak BH3 peptide. The conditions noted are these: FP, GST-Bcl-XL and fluorescein-labeled Bak BH3 peptide; ND = not detected. The assay is classed as binding. A general note: In fluorescence polarisation assays a small probe gives low polarisation when free and higher when bound to something large.

Assay [1] concerns the target T1, Mcl-1 (Mus musculus, UniProt P97287). The assay is described as follows: Multifragment KTGS screen against Mcl-1 (5 TA x 38 SZ per well), LC-MS/MS. Conditions: multifragment KTGS, 190 combinations per well, 10 μM Mcl-1, 20 μM each fragment, pH 7.4, 37 °C, 10 h; peak area with protein / without protein.
In assay [2] the target is T1, Mcl-1. The assay is described as follows: Binary KTGS incubation (1 TA x 1 SZ) with Mcl-1, LC-MS/MS. The conditions noted are these: binary incubation mixtures with and without Mcl-1.
Assay [3] addresses GST-tagged mouse Mcl-1-(152–309) (Mus musculus, UniProt P97287). In words: Fluorescence polarization competitive binding assay, GST-Mcl-1 / FITC-Bim-BH3. The arrangement: selectivity index: reference not given here. Conditions: for inhibition at 50 µM: compound at 50 µM.
Setting [4] is: FP, GST-Mcl-1 and fluorescein-labeled Bim BH3 peptide, read-out: IC50 on Mcl-1.

Values joined by “and” are separate entries in the source; they are usually repeats but may differ in a detail not shown here. Equal entries are not always repeated. Where two headings read alike, the source gives them in different places. A value given as a limit tells only on which side of the number the result lay.

GST-tagged mouse Mcl-1-(152–309), sequence (P97287 152-309): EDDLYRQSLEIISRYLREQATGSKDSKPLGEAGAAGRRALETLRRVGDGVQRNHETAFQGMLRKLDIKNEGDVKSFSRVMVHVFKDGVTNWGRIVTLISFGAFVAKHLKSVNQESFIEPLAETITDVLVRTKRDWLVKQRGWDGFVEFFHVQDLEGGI
GST-Bcl-XL, sequence (Q07817 whole entry): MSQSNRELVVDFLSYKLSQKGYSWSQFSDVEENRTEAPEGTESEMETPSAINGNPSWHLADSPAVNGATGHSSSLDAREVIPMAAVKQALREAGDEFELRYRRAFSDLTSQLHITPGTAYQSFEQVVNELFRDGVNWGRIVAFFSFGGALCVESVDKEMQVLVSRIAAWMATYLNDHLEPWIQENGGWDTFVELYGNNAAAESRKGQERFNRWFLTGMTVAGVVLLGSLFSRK
T1 sequence (P97287 whole entry, the tested form may be a part): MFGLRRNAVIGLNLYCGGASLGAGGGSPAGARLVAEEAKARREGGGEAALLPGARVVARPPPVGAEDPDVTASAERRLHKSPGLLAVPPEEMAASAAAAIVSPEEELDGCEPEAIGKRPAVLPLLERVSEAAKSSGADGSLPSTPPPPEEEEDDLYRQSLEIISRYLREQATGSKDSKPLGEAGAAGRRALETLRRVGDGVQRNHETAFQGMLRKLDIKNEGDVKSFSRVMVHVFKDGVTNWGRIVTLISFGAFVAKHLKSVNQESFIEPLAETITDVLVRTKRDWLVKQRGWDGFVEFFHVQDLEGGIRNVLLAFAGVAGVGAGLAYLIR

Consider `O=C(NS(=O)(=O)c1ccc(NCCSc2ccccc2)c([N+](=O)[O-])c1)c1ccc(CCc2ccccn2)cc1` [SZ4TA17, O=C(NS(C1=CC=C(NCCSC2=CC=CC=C2)C([N+]([O-])=O)=C1)(=O)=O)C3=CC=C(CCC4=NC=CC=C4)C=C3], for which the IC50 is 2.1 µM and 2.08 µM on GST-Bcl-XL; 61 µM and 60.6 µM in assay [3] (setting [4]). Further, on Mcl-1 [1], the “Amplification coefficient 5TA x 38SZ” value was found to be 8. The “Amplification coefficient 1TA x 1SZ” value at Mcl-1 [2] was 10. Further, in assay [3] (FP), the inhibition at 50 µM worked out at 44.7%. For the same compound, in assay [3] (quotient of the IC50 toward Bcl-XL over the IC50 toward Mcl-1), the selectivity index was 0.03.
Consider `O=C(NS(=O)(=O)c1ccc(NCCSc2ccccc2)c([N+](=O)[O-])c1)c1ccc2c(ccn2Cc2ccc(C(F)(F)F)cc2C(F)(F)F)c1` [SZ4TA30, O=C(NS(C1=CC=C(NCCSC2=CC=CC=C2)C([N+]([O-])=O)=C1)(=O)=O)C3=CC(C=CN4CC5=CC=C(C(F)(F)F)C=C5C(F)(F)F)=C4C=C3], for which the IC50 is above 50 µM against GST-Bcl-XL and 26.1 µM in assay [3] (setting [4]). In addition, the “Amplification coefficient 5TA x 38SZ” value on Mcl-1 [1] amounted to 20. In addition, on Mcl-1 [2], the “Amplification coefficient 1TA x 1SZ” value was 4. Moreover, the inhibition at 50 µM in assay [3] (FP) is 80.7%.
For the compound `O=C(NS(=O)(=O)c1ccc(CNc2cccc([N+](=O)[O-])c2)cc1)c1ccc(CN2C(=O)C(c3ccc(F)cc3F)=C(c3ccc(F)cc3F)C2=O)cc1` [SZ12TA42, O=C(NS(C1=CC=C(CNC2=CC=CC([N+]([O-])=O)=C2)C=C1)(=O)=O)C3=CC=C(CN4C(C(C5=C(F)C=C(F)C=C5)=C(C6=CC=C(F)C=C6F)C4=O)=O)C=C3], the “IC50 on Bcl-XL” value on GST-Bcl-XL was “below the detectable threshold”. For the same compound, at Mcl-1 [1], the “Amplification coefficient 5TA x 38SZ” value was found to be 9. Moreover, the “Amplification coefficient 1TA x 1SZ” value on Mcl-1 [2] was 6. The IC50 in assay [3] (setting [4]) is 13.6 µM. In addition, the inhibition at 50 µM in assay [3] (FP) came to 89.4%.
Consider `O=C(NS(=O)(=O)c1ccc(CN(CCSc2ccccc2)Cc2c(F)cccc2Cl)cc1)c1ccccc1` [SZ15TA1, O=C(NS(C1=CC=C(CN(CCSC2=CC=CC=C2)CC3=C(F)C=CC=C3Cl)C=C1)(=O)=O)C4=CC=CC=C4], for which the IC50 against GST-Bcl-XL was 29.1 µM; in assay [3] (IC50 on Mcl-1), 9.7 µM. For the same compound, the “Amplification coefficient 5TA x 38SZ” value at Mcl-1 [1] amounted to 13. In addition, the “Amplification coefficient 1TA x 1SZ” value on Mcl-1 [2] turned out to be 5. Besides, in assay [3] (FP), the inhibition at 50 µM turned out to be 92.5%.
As to `Cc1nc(-c2ccccc2)sc1C(=O)NS(=O)(=O)c1ccc(CN(CCSc2ccccc2)Cc2c(F)cccc2Cl)cc1` [SZ15TA3, O=C(NS(C1=CC=C(CN(CCSC2=CC=CC=C2)CC3=C(F)C=CC=C3Cl)C=C1)(=O)=O)C4=C(C)N=C(C5=CC=CC=C5)S4], the results for the IC50 (against GST-Bcl-XL; in assay [3] (IC50 on Mcl-1)) were 36.4 µM and 5.8 µM, respectively. Also, the “Amplification coefficient 5TA x 38SZ” value at Mcl-1 [1] is given as 10. The “Amplification coefficient 1TA x 1SZ” value at Mcl-1 [2] came out at 5. Besides, the inhibition at 50 µM in assay [3] (FP) worked out at 95.9%.
On to `COc1cc(OC)cc(C(=O)NS(=O)(=O)c2ccc(CN(CCSc3ccccc3)Cc3c(F)cccc3Cl)cc2)c1` [SZ15TA5, O=C(NS(C1=CC=C(CN(CCSC2=CC=CC=C2)CC3=C(F)C=CC=C3Cl)C=C1)(=O)=O)C4=CC(OC)=CC(OC)=C4], for which the results for the IC50 (at GST-Bcl-XL; in assay [3] (IC50 on Mcl-1)) were 53 µM and 13.4 µM, respectively. The “Amplification coefficient 5TA x 38SZ” value at Mcl-1 [1] is given as 9. Moreover, at Mcl-1 [2], the “Amplification coefficient 1TA x 1SZ” value was 4. The selectivity index in assay [3] is on record as 4.0. In assay [3] (FP), the inhibition at 50 µM is above 99%.
Turning to `COc1cccc(CN(CCSc2ccccc2)Cc2ccc(S(=O)(=O)NC(=O)c3ccc(Cc4ccc(OC)c(OC)c4OC)cc3)cc2)c1` [SZ17TA24, O=C(NS(C1=CC=C(CN(CCSC2=CC=CC=C2)CC3=CC(OC)=CC=C3)C=C1)(=O)=O)C4=CC=C(CC5=CC=C(OC)C(OC)=C5OC)C=C4], at Mcl-1 [1], the “Amplification coefficient 5TA x 38SZ” value is recorded as 9. For the same compound, the “Amplification coefficient 1TA x 1SZ” value at Mcl-1 [2] is on record as 5. The inhibition at 50 µM in assay [3] (FP) came out at 74.1%.
On the same counts, the results for `COc1cccc(CN(CCSc2ccccc2)Cc2ccc(S(=O)(=O)NC(=O)c3ccc(-c4ccccn4)cc3)cc2)c1` [SZ17TA25, O=C(NS(C1=CC=C(CN(CCSC2=CC=CC=C2)CC3=CC(OC)=CC=C3)C=C1)(=O)=O)C4=CC=C(C5=NC=CC=C5)C=C4] are 7, 4 and 93.6%.
On the same counts, the results for `COc1cccc(CN(CCSc2ccccc2)Cc2ccc(S(=O)(=O)NC(=O)c3ccc(C(c4c[nH]c5ccccc45)c4c[nH]c5ccccc45)cc3)cc2)c1` [SZ17TA31, O=S(C1=CC=C(C=C1)CN(CCSC2=CC=CC=C2)CC3=CC=CC(OC)=C3)(NC(C(C=C4)=CC=C4C(C5=CNC6=C5C=CC=C6)C7=CNC8=C7C=CC=C8)=O)=O] are 21, 9 and 42.5%.
For `COc1cccc(CN(CCSc2ccccc2)Cc2ccc(S(=O)(=O)NC(=O)c3ccc4c(c3)c(C(=O)c3cccs3)cn4C)cc2)c1` [SZ17TA45, O=C(NS(C1=CC=C(CN(CCSC2=CC=CC=C2)CC3=CC(OC)=CC=C3)C=C1)(=O)=O)C4=CC(C(C(C5=CC=CS5)=O)=CN6C)=C6C=C4], at Mcl-1 [1], the “Amplification coefficient 5TA x 38SZ” value stood at 16. Further, the “Amplification coefficient 1TA x 1SZ” value at Mcl-1 [2] came out at 20. Besides, the inhibition at 50 µM in assay [3] (FP) was 34.5%.
On the same counts, the results for `CCOc1ccc(-c2ccc3c(c2)c(C(=O)NS(=O)(=O)c2cccc4c(N(C)C)cccc24)cn3C)cc1F` [SZ21TA23, O=C(NS(C1=CC=CC2=C1C=CC=C2N(C)C)(=O)=O)C(C3=C4C=CC(C5=CC=C(OCC)C(F)=C5)=C3)=CN4C] are 7, 4 and 42.8%.
As to `Cn1cc(C(=O)c2cccs2)c2cc(C(=O)NS(=O)(=O)CCN(CCSc3ccccc3)Cc3ccc4c(c3)OCO4)ccc21` [SZ28TA45, O=C(NS(CCN(CC1=CC=C(OCO2)C2=C1)CCSC3=CC=CC=C3)(=O)=O)C4=CC(C(C(C5=CC=CS5)=O)=CN6C)=C6C=C4], at Mcl-1 [1], the “Amplification coefficient 5TA x 38SZ” value was 8. On Mcl-1 [2], the “Amplification coefficient 1TA x 1SZ” value worked out at 5. Moreover, in assay [3] (FP), the inhibition at 50 µM worked out at 54%.
Take `Cc1nc(-c2ccccc2)sc1C(=O)NS(=O)(=O)c1ccc(CN(CCSc2ccccc2)Cc2ccc3c(c2)OCO3)cc1` [SZ31TA3, O=C(NS(C1=CC=C(CN(CCSC2=CC=CC=C2)CC3=CC(OCO4)=C4C=C3)C=C1)(=O)=O)C5=C(C)N=C(C6=CC=CC=C6)S5]: the “Amplification coefficient 5TA x 38SZ” value on Mcl-1 [1] is reported as 15. Also, the “Amplification coefficient 1TA x 1SZ” value at Mcl-1 [2] was 7. The IC50 in assay [3] (setting [4]) stood at 9.4 µM. Besides, in assay [3] (FP), the inhibition at 50 µM was above 99%.
As for `O=C(NS(=O)(=O)c1ccc(CN(CCSc2ccccc2)Cc2ccc3c(c2)OCO3)cc1)c1ccc(OC(F)(F)F)cc1` [SZ31TA8, O=C(NS(C1=CC=C(CN(CCSC2=CC=CC=C2)CC3=CC(OCO4)=C4C=C3)C=C1)(=O)=O)C5=CC=C(OC(F)(F)F)C=C5], at Mcl-1 [1], the “Amplification coefficient 5TA x 38SZ” value is recorded as 7. Further, the “Amplification coefficient 1TA x 1SZ” value on Mcl-1 [2] came to 4. Besides, the IC50 in assay [3] (setting [4]) was 5.9 µM. In assay [3] (FP), the inhibition at 50 µM was above 99%.
Take `O=C(NS(=O)(=O)c1ccc(CN(CCSc2ccccc2)Cc2ccc3c(c2)OCO3)cc1)c1ccc(-c2ccc(F)cc2)cc1` [SZ31TA14, O=C(NS(C1=CC=C(CN(CC2=CC(OCO3)=C3C=C2)CCSC4=CC=CC=C4)C=C1)(=O)=O)C5=CC=C(C6=CC=C(F)C=C6)C=C5]: the “Amplification coefficient 5TA x 38SZ” value at Mcl-1 [1] was 10. For the same compound, the “Amplification coefficient 1TA x 1SZ” value at Mcl-1 [2] was found to be 4. Also, the inhibition at 50 µM in assay [3] (FP) was determined as 59.5%.
Consider `Cn1cc(C(=O)C2CCCCC2)c2cc(C(=O)NS(=O)(=O)c3ccc(CN(CCSc4ccccc4)Cc4ccc5c(c4)OCO5)cc3)ccc21` [SZ31TA40, O=C(NS(C1=CC=C(CN(CCSC2=CC=CC=C2)CC3=CC(OCO4)=C4C=C3)C=C1)(=O)=O)C5=CC=C6C(C(C(C7CCCCC7)=O)=CN6C)=C5], for which the “Amplification coefficient 5TA x 38SZ” value on Mcl-1 [1] turned out to be 56. The “Amplification coefficient 1TA x 1SZ” value on Mcl-1 [2] is given as 8. Further, the inhibition at 50 µM in assay [3] (FP) was -52.4%.
Consider `O=C(NS(=O)(=O)c1ccc(CN(CCSc2ccccc2)Cc2ccc3c(c2)OCO3)cc1)c1cccc(NCCc2ccccc2)c1` [SZ31TA44, O=C(NS(C1=CC=C(CN(CC2=CC(OCO3)=C3C=C2)CCSC4=CC=CC=C4)C=C1)(=O)=O)C5=CC(NCCC6=CC=CC=C6)=CC=C5], for which, at Mcl-1 [1], the “Amplification coefficient 5TA x 38SZ” value amounted to 10. Also, the “Amplification coefficient 1TA x 1SZ” value at Mcl-1 [2] is 12. The inhibition at 50 µM in assay [3] (FP) amounted to 36.5%.
For `Cn1cc(C(=O)c2cccs2)c2cc(C(=O)NS(=O)(=O)c3ccc(CN(CCSc4ccccc4)Cc4ccc5c(c4)OCO5)cc3)ccc21` [SZ31TA45, O=C(NS(C1=CC=C(CN(CC2=CC(OCO3)=C3C=C2)CCSC4=CC=CC=C4)C=C1)(=O)=O)C5=CC(C(C(C6=CC=CS6)=O)=CN7C)=C7C=C5], in that order: 25, 6 and 40.2%.
For `O=C(NS(=O)(=O)c1ccc(-c2ccc(Oc3ccccc3)cc2)cc1)c1cccc2ccccc12` [SZ35TA7, O=C(NS(C1=CC=C(C2=CC=C(OC3=CC=CC=C3)C=C2)C=C1)(=O)=O)C4=CC=CC5=C4C=CC=C5], in that order: 25, 4 and 87.8%.
For `O=C(NS(=O)(=O)c1ccc(-c2ccc(Oc3ccccc3)cc2)cc1)c1ccc(CCc2ccccn2)cc1` [SZ35TA17, O=C(NS(C1=CC=C(C2=CC=C(OC3=CC=CC=C3)C=C2)C=C1)(=O)=O)C4=CC=C(CCC5=NC=CC=C5)C=C4], in that order: 9, 9 and 89.2%.
As for `COc1ccc(Cc2ccc(C(=O)NS(=O)(=O)c3ccc(-c4ccc(Oc5ccccc5)cc4)cc3)cc2)c(OC)c1OC` [SZ35TA24, O=C(NS(C1=CC=C(C2=CC=C(OC3=CC=CC=C3)C=C2)C=C1)(=O)=O)C4=CC=C(CC5=CC=C(OC)C(OC)=C5OC)C=C4], the “Amplification coefficient 5TA x 38SZ” value on Mcl-1 [1] is reported as 9. In addition, the “Amplification coefficient 1TA x 1SZ” value at Mcl-1 [2] was 8. Also, the inhibition at 50 µM in assay [3] (FP) came to 76.4%.

For orientation: IC50 means the concentration that gives 50% inhibition. By inhibition is commonly meant the change of the read-out against control, counted positive when it falls.

Values taken from article PMC10620989, “Going beyond Binary: Rapid Identification of Protein–Protein Interaction Modulators Using a Multifragment Kinetic Target-Guided Synthesis Approach” (Journal of Medicinal Chemistry, 2023).
